# Source: US11694765B2, “Interrogatory cell-based assays for identifying drug-induced toxicity markers” (Berg LLC, priority 2012, dated 2023)
# Key:
# [1] = tested on: melanoma cell; settings: in the presence of VEGF; cited from earlier work
# [2] = tested on: hyperglycemia conditioned cardiomyocytes; assay: Mitochondrial oxygen consumption rate (Seahorse analyzer); type: cell-based, human; settings: diabetic drug plus rescue molecule (T1+R or T2+R)
# Procedure: (§1) Human cardiomyocytes were subject to conditions simulating an diabetic environment experienced by the disease-relevant cells in vivo. Specifically, the cells were exposed to hyperglycemic conditions and hyperlipidemia conditions. The hyperglycemic condition was induced by culturing cells in media containing 22 mM glucose. The hyperlipidemia condition was induced by culturing the cells in media containing 1 mM L-carnitine, 0.7 mM Oleic acid and 0.7 mM Linoleic acid. […]
# iProfiling of changes in total cellular protein expression by quantitative proteomics was performed for cell and media samples collected for each condition and with each “environmental perturbation”, i.e, diabetic drug treatment, Coenzyme Q10 treatment or both, using the techniques described above in the detailed description. […] Following data collection (Ct), the final fold change over control was determined using the δCt method as outlined in manufacturer's protocol. […] Functional assays such as Oxygen consumption rate OCR were measured by employing the Seahorse analyzer essentially as recommended by the manufacturer. OCR was recorded by the electrodes in a 7 μl chamber created with the cartridge pushing against the seahorse culture plate. […]
# [3] = tested on: normal fibroblast; settings: co-administration with VEGF; cited from earlier work
# [4] = tested on: GPAT1 and TAZ in hyperglycemia conditioned cardiomyocytes; assay: Western blotting of GPAT1 and TAZ protein expression in cardiomyocytes; type: cell-based, human; settings: diabetic drug plus rescue molecule (T+R)
# Procedure: Human cardiomyocytes were subject to conditions simulating an diabetic environment experienced by the disease-relevant cells in vivo. Specifically, the cells were exposed to hyperglycemic conditions and hyperlipidemia conditions. The hyperglycemic condition was induced by culturing cells in media containing 22 mM glucose. The hyperlipidemia condition was induced by culturing the cells in media containing 1 mM L-carnitine, 0.7 mM Oleic acid and 0.7 mM Linoleic acid.
# The cell model comprising the above-mentioned cells, wherein the cells were exposed to each condition described above, was additionally “interrogated” by exposing the cells to an “environmental perturbation” by treating with a diabetic drug (T) which is known to cause cardiotoxicity, a rescue molecule (R) or both the diabetic drug and the rescue molecule (T+R). Specifically, the cells were treated with diabetic drug; or treated with rescue molecule Coenzyme Q10 at 0, 50 μM, or 100 μM; or treated with both of the diabetic drug and the rescue molecule Coenzyme Q10.
# Protein expression levels of GPAT1 and TAZ for each condition and each treatment were tested with western blotting.
# [5] = tested on: human mitochondrial energy metabolism genes in diabetic cardiomyocytes; assay: Transcriptional profiling of mitochondrial energy metabolism genes in diabetic cardiomyocytes; type: cell-based; settings: diabetic drug plus rescue molecule (T+R) vs untreated (UT)
# Procedure: as §1
# Cell samples from each condition with each perturbation treatment were collected at various times following treatment, including after 6 hours of treatment. For certain conditions, media samples were also collected and analyzed.
# iProfiling of changes in total cellular protein expression by quantitative proteomics was performed for cell and media samples collected for each condition and with each “environmental perturbation”, i.e, diabetic drug treatment, Coenzyme Q10 treatment or both, using the techniques described above in the detailed description. […] Following data collection (Ct), the final fold change over control was determined using the δCt method as outlined in manufacturer's protocol. […] Functional assays such as Oxygen consumption rate OCR were measured by employing the Seahorse analyzer essentially as recommended by the manufacturer. […]
compound,measurement,setting,value
COC1=C(OC)C(=O)C(C/C=C(\C)CC/C=C(\C)CC/C=C(\C)CC/C=C(\C)CC/C=C(\C)CC/C=C(\C)CC/C=C(\C)CC/C=C(\C)CC/C=C(\C)CCC=C(C)C)=C(C)C1=O [Coenzyme Q10],level of Bcl2,[1],decreased
same,mitochondrial oxygen consumption rate (OCR),[2],normalized
same,mitochondrial oxygen consumption rate (OCR),[2]; listed as rescue molecule,normalizes OCR
same,levels of Bcl2,[3],no effect
same,protein expression level of GPAT1,[4],normalized
same,protein expression level of TAZ,[4],normalized
same,transcriptional network and expression of human mitochondrial energy metabolism genes,[5],normalize gene expression and transcription
same,transcriptional network and expression of human mitochondrial energy metabolism genes,[5]; listed as rescue molecule,normalizes gene expression
